Source: patent US9212168B2 (priority 2011, dated 2015)

Tested on: HCV genotype 1a replicon
Assay: HCV genotype 1a replicon assay (NS3 protease activity readout)
Format: cell-based, hepatitis C virus
Conditions: HCV genotype 1a replicon
Method in brief: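 Genotype 1a subgenomic replicon cells (APC89, Huh7.5) were treated with compound dose-responses in G418-free medium, 0.5% DMSO final, for 48 or 72 hours at 37° C. Lysate NS3/4a protease activity measured with 15 μM FRET substrate, 20 min at 37° C (ex 340/em 509 nm); EC50 by 4-parameter fit.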

SMILES	Genotype 1a
COC(=O)N[C@H](C(=O)N1C[C@@H](OC)C[C@H]1c1nc(-c2ccc(-c3cc(Cl)c(NC(=O)c4ccc(N5C[C@H](C)N(C(=O)C(C)(C)CO)C[C@H]5C)nc4)cc3OC(F)(F)F)cc2)c[nH]1)C1CCOCC1 [Example 28-5]	D (D represents pEC50>10 (EC50<0.1 nM))
COC(=O)NC(C(=O)N1CC(C)CC1c1nc(-c2ccc(-c3ccc(NC(=O)c4ccc(N5CCN(C(=O)C(C)(C)CO)CC5C)nc4)cc3OC(F)(F)F)cc2)c[nH]1)C1CCOCC1 (stereo not shown) [Example 13-32]	D (D represents pEC50>10 (EC50<0.1 nM))
COC(=O)N[C@H](C(=O)N1C[C@@H](C)C[C@H]1c1nc(-c2ccc(-c3cc(F)c(NC(=O)c4ccc(N5CCN(C(=O)C6CC67CC7)C[C@H]5C)nc4)cc3F)cc2)c[nH]1)C(C)C (stereo partly shown) [Example 1-90]	C (C represents pEC50 between and 9 and about 10, (EC50 between 1 nM and 0.1 nM))
COC(=O)NC(C(=O)N1C(C)CCC1c1nc(-c2ccc(-c3ccc(C(=O)Nc4ccc(N5CCN(C(=O)C6CC6(C)C)CC5C)nc4)cc3OC(F)(F)F)cc2)c[nH]1)C(C)C (stereo not shown) [Example 18-3]	C (C represents pEC50 between and 9 and about 10, (EC50 between 1 nM and 0.1 nM))
COC(=O)N[C@H](C(=O)N1C[C@@H](C)C[C@H]1c1nc(-c2ccc(-c3cc(Cl)c(NC(=O)c4ccc(N5CCN(C(=O)[C@@H]6CCN6C(C)C)C[C@H]5C)nc4)cc3OC(F)(F)F)cc2)c[nH]1)C(C)C [Example 1-85]	B (B represents pEC50 between 8 and 9 (EC50 between 1 and 10 nM))
COC(=O)N[C@H](C(=O)N1[C@@H](C)CC[C@H]1c1nc(-c2ccc(-c3ccc(C(=O)Nc4ccc(N5CCN(C(=O)C(C)(C)C)C[C@H]5C)nc4)cc3OC(F)(F)F)cc2)c(Cl)[nH]1)C(C)C [Example 18-2]	C (C represents pEC50 between and 9 and about 10, (EC50 between 1 nM and 0.1 nM))
COC(=O)N[C@H](C(=O)N1C[C@@H](C)C[C@H]1c1nc(-c2ccc(-c3cc(Cl)c(NC(=O)c4ccc(N5CCN(C(=O)C(C)(C)C)C[C@H]5C)nc4)cc3C(F)(F)F)cc2)c[nH]1)C1CCCC1 [Example 19-11]	D (D represents pEC50>10 (EC50<0.1 nM))
COC(=O)N[C@H](C(=O)N1C[C@@H](C)C[C@H]1c1nc(-c2ccc(-c3ccc(C(=O)Nc4ccc(N5C[C@H](C)N(C(=O)C(C)(C)NC(C)=O)C[C@H]5C)nc4)cc3OC(F)(F)F)cc2)c[nH]1)C(C)C [Example 4-27]	C (C represents pEC50 between and 9 and about 10, (EC50 between 1 nM and 0.1 nM))
COC(=O)N[C@H](C(=O)N1C[C@@H](C)C[C@H]1c1nc(-c2ccc(-c3cc(Cl)c(NC(=O)c4ccc(N5CCN(C(=O)[C@H]6CCCN6C(C)=O)C[C@H]5C)nc4)cc3OC(F)(F)F)cc2)c[nH]1)C(C)C [Example 1-47]	D (D represents pEC50>10 (EC50<0.1 nM))
COC(=O)NC(C(=O)N1C[C@@H](C)C[C@H]1c1nc(-c2ccc(-c3cc(Cl)c(C(=O)Nc4ccc(N5CCN(C(=O)C(C)(C)C)C[C@H]5C)nc4)cc3OC(F)(F)F)cc2)c[nH]1)C1C[C@@H](C)O[C@@H](C)C1 (stereo partly shown) [Example 23-2]	D (D represents pEC50>10 (EC50<0.1 nM))
CNC(=O)N1C[C@@H](C)N(c2ccc(C(=O)Nc3cc(OC(F)(F)F)c(-c4ccc(-c5c[nH]c([C@@H]6C[C@H](C)CN6C(=O)[C@@H](NC(=O)OC(C)C)C(C)C)n5)cc4)cc3Cl)cn2)C[C@@H]1C [Example 7-5]	B (B represents pEC50 between 8 and 9 (EC50 between 1 and 10 nM))
COC(=O)NC(C(=O)N1C[C@@H](C)C[C@H]1c1nc(-c2ccc(-c3c(F)cc(NC(=O)c4ccc(N5CCN(C(=O)C(C)(C)C)C[C@H]5C)nc4)cc3F)cc2)c[nH]1)C1CCCCC1 (stereo partly shown) [Example 21-4]	C (C represents pEC50 between and 9 and about 10, (EC50 between 1 nM and 0.1 nM))
COC(=O)N[C@H](C(=O)N1C[C@@H](C)C[C@H]1c1nc(-c2ccc(-c3ccc(C(=O)Nc4ccc(N5C[C@H](C)N(C(=O)C6CC6C)C[C@H]5C)nc4)cc3OC(F)(F)F)cc2)c(Cl)[nH]1)C(C)C (stereo partly shown) [Example 4-13]	C (C represents pEC50 between and 9 and about 10, (EC50 between 1 nM and 0.1 nM))
COC(=O)N[C@H](C(=O)N1C[C@@H](C)C[C@H]1c1nc(-c2ccc(-c3cc(Cl)c(NC(=O)c4ccc(N5CCN(C(=O)c6cn(C)cn6)C[C@H]5C)nc4)cc3OC(F)(F)F)cc2)c[nH]1)C(C)C [Example 1-33]	C (C represents pEC50 between and 9 and about 10, (EC50 between 1 nM and 0.1 nM))
COC(=O)N[C@H](C(=O)N1C[C@@H](C)C[C@H]1c1nc(-c2ccc(-c3ccc(C(=O)Nc4ccc(N5C[C@H](C)N(C(=O)C6CC6(F)F)C[C@H]5C)nc4)cc3OC(F)(F)F)cc2)c[nH]1)C(C)C (stereo partly shown) [Example 4-22]	C (C represents pEC50 between and 9 and about 10, (EC50 between 1 nM and 0.1 nM))
COC(=O)NC(C(=O)N1CC(C)CC1c1nc(-c2ccc(-c3ccc(NC(=O)c4ccc(N5CCN(C(=O)C(C)(C)C)CC5C)nc4)cc3OC(F)(F)F)cc2)c[nH]1)C(C)(C)O (stereo not shown) [Example 13-15]	D (D represents pEC50>10 (EC50<0.1 nM))

Same assay, conditions: Hepatitis C virus, read-out: Genotype 1a, HCV genotype 1a replicon

SMILES	EC50 [nM]
COC(=O)NC(C(=O)N1C[C@@H](C)C[C@H]1c1nc(-c2ccc(-c3c(F)cc(NC(=O)c4ccc(N5CCN(C(=O)C(C)(C)C)C[C@H]5C)nc4)cc3F)cc2)c[nH]1)C1CCS(=O)(=O)CC1 (stereo partly shown) [Example 21-2]	10 to 1000
COC(=O)N[C@H](C(=O)N1C[C@@H](C)C[C@H]1c1nc(-c2ccc(-c3cc(Cl)c(NC(=O)c4ccc(N5CCN(C(=O)C(C)(C)CNC(=O)C6CC6)C[C@H]5C)nc4)cc3OC(F)(F)F)cc2)c[nH]1)C(C)C [Example 12-37]	0.1 to 1
CCN(CC)C(C(=O)N1C[C@@H](C)C[C@H]1c1nc(-c2ccc(-c3cc(Cl)c(NC(=O)c4ccc(N5C[C@H](C)N(C(=O)NC)C[C@H]5C)nc4)cc3OC(F)(F)F)cc2)c[nH]1)c1ccccc1 (stereo partly shown) [Example 7-12]	< 0.1
COC(=O)NCC(C)(C)C(=O)N1CCN(c2ccc(C(=O)Nc3cc(OC(F)(F)F)c(-c4ccc(-c5c[nH]c([C@@H]6C[C@H](C)CN6C(=O)[C@@H](NC(=O)OC)C(C)C)n5)cc4)cc3Cl)cn2)[C@H](C)C1 [Example 12-39]	< 0.1
COC(=O)N[C@H](C(=O)N1C[C@@H](C)C[C@H]1c1nc(-c2ccc(-c3cc(Cl)c(NC(=O)c4ccc(N5CCN(C(=O)C6CC(CO)C6)C[C@H]5C)nc4)cc3OC(F)(F)F)cc2)c[nH]1)C(C)C (stereo partly shown) [Example 12-55]	< 0.1
COC(=O)N[C@H](C(=O)N1C[C@H](C)C[C@H]1c1nc(-c2ccc(-c3cc(Cl)c(C(=O)Nc4ccc(N5CCN(C(=O)C(C)(C)C)C[C@H]5C)nc4)cc3OC(F)(F)F)cc2)c[nH]1)C(C)C [Example 6-26]	1 to 10
COC(=O)N[C@H](C(=O)N1C[C@@H](OC)C[C@H]1c1nc(-c2ccc(-c3cc(F)c(NC(=O)c4ccc(N5CCN(C(=O)C(C)(C)C)[C@@H](CO)C5)nc4)cc3OC(F)(F)F)cc2)c[nH]1)C1CCOCC1 [Example 5-16]	< 0.1
CC(C)[C@@H](C(=O)N1C[C@@H](C)C[C@H]1c1nc(-c2ccc(-c3cc(Cl)c(NC(=O)c4ccc(N5CCN(C(=O)C(C)(C)C)C[C@H]5C)nc4)cc3OC(F)(F)F)cc2)c[nH]1)N1CCCCC1 [Example 13-2]	10 to 1000
COC(=O)N[C@H](C(=O)N1C[C@@H](OC)C[C@H]1c1nc(-c2ccc(-c3cc(Cl)c(NC(=O)c4ccc(N5CCN(C(=O)C(C)(C)CO)C[C@H]5C)nc4)cc3OC(F)(F)F)cc2)c(CO)[nH]1)C(C)C [Example 5-17]	< 0.1
